Data from PMC7018645, “Hijacking the Fusion Complex of Human Parainfluenza Virus as an Antiviral Strategy” (mBio, 2020).
Where two headings read alike, the source gives them in different places.

Experiments:
[1] = system: clinical isolate HPIV3 HN; test: Hemadsorption (HAD) assay of HN-receptor binding; format: cell-based, human parainfluenza virus type 3; details: cells expressing clinical strain HN, RBC binding
Method: We assessed the effect of PAC-3066 on HPIV3 HN-receptor binding in a hemadsorption (HAD) assay that quantitates the binding of sialic acid receptor-bearing erythrocytes (RBC) to HN/F-coexpressing cells.
(§1) (A) Sensitivity of HN-receptor binding to viral entry inhibitors of cell monolayers expressing clinical isolate HPIV3 HN, incubated with either PAC-3066, zanamivir, or DMSO. Percent inhibition relative to that for DMSO-treated cells is shown. Each point represents the mean from 3 experiments, each of which was performed in triplicate, ± SEM. […] Each bar represents the results from triplicate experiments, each of which was performed in triplicate, ± SEM.
Hemadsorption (HAD) was performed and quantified as previously described ([13]). Briefly, the growth medium was aspirated from HN-transfected 293T cell monolayers in 48-well BioCoat plates (Becton Dickson Labware), the medium was replaced with 150 μl of CO2-independent medium (pH 7.3; Gibco) containing different concentrations of compounds and 1% RBC in serum-free CO2-independent medium, and the plates were placed at 4°C for 30 min. The wells were then washed three times with 150 μl cold CO2-independent medium. The bound RBCs were lysed with 200 μl RBC lysis solution (0.145 M NH4Cl, 17 mM Tris HCl), and the absorbance at 405 nm was read using a Tecan M-1000 Pro microplate reader.

[2] = system: HPIV3 clinical isolate HN neuraminidase; test: Neuraminidase activity on cell monolayers expressing HN; format: biochemical, human parainfluenza virus type 3; details: 37°C, pH 5
Method: as §1
Assays for the measurement of neuraminidase activity were performed in transiently transfected 293T cell monolayers, as described previously ([13], [34], [82]). Briefly, 293T cells expressing HN were added to 96-well plates in CO2-independent medium at pH 5.0. After adding reaction mixtures containing 20 mM 2′-(4-methylumbelliferyl)-alpha-D-N-acetylneuraminic acid (Toronto Research Chemicals Inc.) substrate and different concentrations of the compounds, the plates were incubated at 37°C for 1 h. Throughout this period, the fluorescence resulting from hydrolysis of the substrate was read at a 365-nm excitation wavelength and a 450-nm emission wavelength using a Tecan M-1000 Pro microplate reader.

[3] = system: HPIV3 clinical isolate (CI-1) eGFP
mCherry-HPIV3 [4] = system: mCherry-HPIV3
[5] = system: HPIV3 clinical isolate (CI-1) eGFP; test: microbe, parasite or virus in culture; details: Human respirovirus 3, read-out: IC50 for inhibition of viral entry
mCherry-HPIV3 [6] = test: microbe, parasite or virus in culture; details: Human respirovirus 3, Vero, read-out: IC50 of pure compound (inhibition of viral spread)

| SMILES | effect on HN-receptor binding [1] | effect on viral neuraminidase activity [2] | inhibition of viral infection by HPIV3 [3] | combination effect with zanamivir (mCherry-HPIV3 [4]; PAC-3066 concentrations below 250 μM) | antagonism with zanamivir (mCherry-HPIV3 [4]; all pairwise combinations) | combination effect with zanamivir (mCherry-HPIV3 [4]; higher PAC-3066 concentrations, e.g. 1,000 μM) | combination effect with zanamivir (mCherry-HPIV3 [4]; range of zanamivir/PAC-3066 ratios, strongest at 1:1, 1:3 or greater, PAC-3066 250 μM, Combenefit) | IC50 [5] [µM] | IC50 (mCherry-HPIV3 [6]) [µM] |
| --- | --- | --- | --- | --- | --- | --- | --- | --- | --- |
| CC(=O)N[C@H]1[C@H]([C@H](O)[C@H](O)CO)OC(C(=O)O)=C[C@@H]1N=C(N)N [zanamivir, reference compound] | inhibits HN-receptor binding | inhibits HPIV3 HN’s neuraminidase | – | – | – | – | – | – | – |
| N#CCc1cc(NS(=O)(=O)c2cccs2)ccc1O [CM9, reference compound] | – | – | inhibited viral infection by HPIV3 | – | – | – | – | – | – |
| CC(=O)Nc1cc(NS(=O)(=O)c2ccc(F)cc2F)ccc1O [PAC-3066] | did not affect receptor binding | no inhibitory effect | inhibited viral infection by HPIV3 | only additive effects were observed | No significant antagonism was observed | no synergy | strong synergy | ~37 | 308 |
